Laboratory results: ChEMBL document CHEMBL1146545, “Ainigmaptilones, sesquiterpenes from the Antarctic gorgonian coral Ainigmaptilon antarcticus” (J Nat Prod, 2003)
The source made the active and inactive calls. No cut-off for these calls is given here.

System: Antarctic bacterium
Experiment: Antimicrobial activity against Antarctic bacteria at 5 mg/mL
Assay type: functional, organism-based

C=C(C)[C@@H]1CC[C@]2(CO)C=CC(=O)[C@@H](C)[C@H]2C1
Activity: Active
